Results: PMC7259466 (bioRxiv, 2020)
Read-outs that look alike come from different tables or passages of the source.

Columns and labels:
[1] = in vitro; details: African green monkey, CPE CC50, uninfected Vero E6, 72 h, Cell Titer-Glo
[2] = system: Vero E6 cells; details: for cell toxicity: Vero E6, up to 30 μM; for cytotoxic: at all concentrations
[3] = system: SARS-CoV-2; details: similar CPE assay with SARS-CoV-2 in Vero-E6 cells; ref [61]; cited from earlier work
[4] = cited from earlier work; for Cmax: human plasma, clinically efficacious doses
[5] = system: Vero-E6 cells; test: Nuclei counts in autophagy assay in Vero-E6 cells; type: cell-based; details: for cytotoxicity based on nuclei counts: highest concentrations (50 μM for all except for ROC-325 at 25 μM)
[6] = system: LC3B; test: LC3B immunostaining autophagy assay, average of four cell lines; type: cell-based; details: for EC50: 16 h, read-out: Autophagy EC50
[7] = system: Vero-E6 cells; details: drug-repurposing screen in Vero-E6 cells; ref [61]; cited from earlier work
[8] = Cell; type: cell-based
[9] = system: LC3B; test: LC3B immunostaining autophagy assay in Vero-E6 cells; type: cell-based; details: ~16 h; for LC3B spot counts: Vero-E6, 50 μM – 0.02 μM
[10] = system: SARS-CoV-2; type: cell-based, SARS CoV-2 (USA_WA1/2020); details: Vero-E6, up to 30 μM
[11] = in monkey; ref [77]; cited from earlier work
[12] = system: acidic organelles; test: LysoTracker Deep Red staining assay in Vero-E6 cells; type: cell-based; details: Vero-E6, cell counts, highest concentration
[13] = system: LC3B; test: LC3B immunostaining autophagy assay in Huh-7.5 cells; type: cell-based, human

With `CCN(CC)CCCC(C)Nc1ccnc2cc(Cl)ccc12` (centres unmarked) [Chloroquine] the CC50 [1] was > 30 µM, the “cell toxicity” value [2] was “no associated cell toxicity” and the cytotoxic [2] was “less than 50%”. For the same compound, the IC50 [3] was 42 µM, the Vd ([4]; ref [78], [79]) was 100 L/kg and the bioavailable ([4]; ref [78], [79]) was 75%. For the same compound, the “cytotoxicity based on nuclei counts” value [5] was “not cytotoxic” and the EC50 [6] was 3.29 ± 1.86 µM.

In the case of `CN(C)CCCN1c2ccccc2CCc2ccc(Cl)cc21` [Clomipramine], the CC50 [1] is reported as > 30 µM, the cytotoxicity ([2]; at 30.0 μM) is reported as “less than 20%” and the cytotoxic [2] is reported as “less than 50%”. The CC50 [7] was > 30 µM, the CC50 at 16 h [8] was > 50 µM and the “submaximal increase of LC3B spot counts” value ([9]; Vero-E6, normalized to DMSO (0%) and CQ (100%)) was 40%. For the same compound, the Cmax ([4]; ref [76]) was 290 nM, the “Vd” value ([4]; ref [76]) was “high” and the “cytotoxicity based on nuclei counts” value [5] was “not cytotoxic”. The “increasing LC3B” value ([6]; all cell lines except for Vero-E6) was “effective” and the “activity against SARS-CoV-2 CPE” value [10] was “completely prevent SARS-CoV-2 CPE”.

In the case of `CCN(CC)CCNc1ccc(CO)c2sc3ccccc3c(=O)c12` [Hycanthone], the “cell toxicity” value [2] is reported as “cytotoxic at the highest concentrations”, the “reduction of cell viability” value ([2]; at 30 μM) is reported as ~100% and the CC50 at 16 h [8] is reported as 11.3 ± 2.73 µM. For the same compound, the “LC3B spot counts” value [9] was “maximal spot counts”, the “absorption” value [11] was “well-absorbed” and the cells killed ([5]; at 50 μM) was “approximately 60%”. The EC50 [6] was 7.35 ± 4.7 µM and the “activity against SARS-CoV-2 CPE” value [10] was “moderate levels of activity”.

For `CCN(CCO)CCCC(C)Nc1ccnc2cc(Cl)ccc12` (centres unmarked) [Hydroxychloroquine, hydroxychloroquine], the CC50 [1] was > 30 µM, the “cell toxicity” value [2] was “no associated cell toxicity” and the cytotoxic [2] was “less than 50%”. For the same compound, the IC50 [3] was 9.21 µM, the CC50 at 16 h [8] was > 50 µM and the Cmax ([4]; ref [80]) was 1500 nM. The T1/2 ([4]; ref [80]) was ~40 days, the “absorption” value ([4]; ref [80]) was “rapid and complete absorption” and the “cytotoxicity based on nuclei counts” value [5] was “not cytotoxic”. The EC50 [6] was 6.55 ± 6.67 µM.

For `OC(c1cc(C(F)(F)F)nc2c(C(F)(F)F)cccc12)C1CCCCN1` (centres unmarked) [Mefloquine], the “cell toxicity” value [2] is given as “cytotoxic at the highest concentrations”, the cytotoxicity ([2]; at 15.0 to 30.0 μM) is given as 100% and the IC50 [3] is given as 7.11 µM. The CC50 [7] was > 18.5 µM, the “toxicity in LysoTracker assay” value [12] was “toxic at the highest concentration” and the CC50 at 16 h [8] was 18.4 ± 2.08 µM. For the same compound, the “LC3B spot counts” value [9] was “ineffective”, the Cmax ([4]; ref [81]) was 4500 nM and the “cytotoxicity based on nuclei counts” value [5] was “completely toxic”. For the same compound, the EC50 ([13]; Homo sapiens, Huh7.5, read-out: Autophagy EC50) was 7.3 µM, the “LC3B spot counts” value ([13]; Huh-7.5) was “increased LC3B spot counts even at low concentrations” and the “activity against SARS-CoV-2 CPE” value [10] was “moderate levels of activity”.

With `CCC(CC)COC(=O)[C@H](C)N[P@](=O)(OC[C@H]1O[C@@](C#N)(c2ccc3c(N)ncnn23)[C@H](O)[C@@H]1O)Oc1ccccc1` [Remdesivir, remdesivir] the “cell toxicity” value [2] was “no apparent cytotoxicity”.
